According to ChEMBL document CHEMBL5108028 (Bioorg Med Chem, 2022):
Activity calls are given as the source filed them. The calls are words filed in the database; no cut-off is given here. Where a SMILES comes first, the peptide text is derived from it. [ ]: non-standard residue; d: D form. 2Thi = N[C@@H](Cc1cccs1)C(=O)O; hSer = N[C@@H](CCO)C(=O)O; Nle = CCCC[C@H](N)C(=O)O

Legend:
MKN-7 = assay: Anticancer activity against human MKN-7 cells assessed as inhibition of cell growth incubated for 3 days by MTT assay; assay type: functional, cell-based; conditions: MKN-7, 72 h
MKN-74 = assay: Anticancer activity against human MKN-74 cells assessed as inhibition of cell growth incubated for 3 days by MTT assay; assay type: functional, cell-based; conditions: MKN-74, 72 h
[1] = target: T1, Cadherin-1 (Homo sapiens) (UniProt P12830); assay: Binding affinity to human E-cadherin in human MKN-7 cell membrane protein fraction measured after 2 hrs by Western blotting based pull-down assay; assay type: cell membranes
T1 sequence (whole entry): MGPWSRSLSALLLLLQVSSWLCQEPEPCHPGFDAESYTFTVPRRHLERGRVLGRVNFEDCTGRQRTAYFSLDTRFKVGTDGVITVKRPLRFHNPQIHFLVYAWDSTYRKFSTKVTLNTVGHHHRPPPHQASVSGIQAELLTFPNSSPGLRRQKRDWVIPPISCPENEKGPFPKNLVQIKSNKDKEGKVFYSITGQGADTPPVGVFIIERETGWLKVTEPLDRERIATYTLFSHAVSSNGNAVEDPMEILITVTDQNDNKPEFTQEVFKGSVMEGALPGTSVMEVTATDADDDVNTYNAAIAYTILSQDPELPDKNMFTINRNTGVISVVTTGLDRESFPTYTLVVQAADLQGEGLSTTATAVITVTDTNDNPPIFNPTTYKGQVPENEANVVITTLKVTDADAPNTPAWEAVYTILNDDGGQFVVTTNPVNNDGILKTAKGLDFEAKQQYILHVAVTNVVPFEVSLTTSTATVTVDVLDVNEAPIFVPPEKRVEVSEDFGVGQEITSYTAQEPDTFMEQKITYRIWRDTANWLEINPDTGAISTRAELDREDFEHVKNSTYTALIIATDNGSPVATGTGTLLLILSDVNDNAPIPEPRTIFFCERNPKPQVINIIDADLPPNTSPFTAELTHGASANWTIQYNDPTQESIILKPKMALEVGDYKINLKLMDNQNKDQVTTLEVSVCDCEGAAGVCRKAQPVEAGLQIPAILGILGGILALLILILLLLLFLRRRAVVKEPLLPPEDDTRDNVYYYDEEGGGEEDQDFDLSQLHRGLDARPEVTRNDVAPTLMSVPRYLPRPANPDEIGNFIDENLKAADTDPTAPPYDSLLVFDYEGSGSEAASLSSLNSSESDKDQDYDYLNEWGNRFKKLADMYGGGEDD

IC50 (MKN-7) | IC50 (MKN-74) | Activity [1] | Compound
4.38 µM | 3.91 µM |  | H-FADLNYMVYM-OH
4.43 µM | 0.19 µM |  | CC[C@H](C)[C@H](NC(=O)[C@@H](N)Cc1ccccc1)C(=O)N[C@@H](CC(=O)O)C(=O)N[C@@H](CC(C)C)C(=O)N[C@@H](CC(N)=O)C(=O)N[C@@H](Cc1ccc(O)cc1)C(=O)N[C@@H](CCSC)C(=O)N[C@H](C(=O)N[C@@H](Cc1ccc(O)cc1)C(=O)N[C@@H](CCOC)C(N)=O)C(C)C (H-FIDLNYMVY[hSer](Me)-NH2)
9.81 µM | 1.09 µM |  | H-FIDLNYMVYL-NH2
8.23 µM | 1.59 µM |  | H-FIDLNYFVYM-NH2
4.03 µM | 9.29 µM |  | H-AIDLNYMVYM-OH
6.87 µM | 0.25 µM |  | H-FIDLNYMVYF-NH2
3.01 µM | 9.05 µM |  | H-FIDLNYAVYM-OH
8.78 µM | 4.5 µM |  | H-FIDLNYMVYA-OH
1.13 µM | 0.37 µM |  | H-FIDLNYMVYM-NH2
8.62 µM | 0.98 µM |  | CC[C@H](C)[C@H](NC(=O)[C@@H](N)Cc1ccccc1)C(=O)N[C@@H](CC(=O)O)C(=O)N[C@@H](CC(C)C)C(=O)N[C@@H](CC(N)=O)C(=O)N[C@@H](Cc1ccc(O)cc1)C(=O)N[C@@H](CCSC)C(=O)N[C@H](C(=O)N[C@@H](Cc1ccc(O)cc1)C(=O)N[C@@H](Cc1cccs1)C(N)=O)C(C)C (H-FIDLNYMVY[2Thi]-NH2)
3.51 µM | 0.2 µM |  | CC[C@H](C)[C@H](NC(=O)[C@@H](N)Cc1ccccc1)C(=O)N[C@@H](CC(=O)O)C(=O)N[C@@H](CC(C)C)C(=O)N[C@@H](CC(N)=O)C(=O)N[C@@H](Cc1ccc(O)cc1)C(=O)N[C@@H](CCOC)C(=O)N[C@H](C(=O)N[C@@H](Cc1ccc(O)cc1)C(=O)N[C@@H](CCSC)C(N)=O)C(C)C (H-FIDLNY[hSer](Me)VYM-NH2)
79.1 µg/mL |  |  | H-YMVYMFQYDS-OH
10.2 µM | 0.35 µM |  | CCCC[C@H](NC(=O)[C@H](Cc1ccc(O)cc1)NC(=O)[C@@H](NC(=O)[C@H](CCSC)NC(=O)[C@H](Cc1ccc(O)cc1)NC(=O)[C@H](CC(N)=O)NC(=O)[C@H](CC(C)C)NC(=O)[C@H](CC(=O)O)NC(=O)[C@@H](NC(=O)[C@@H](N)Cc1ccccc1)[C@@H](C)CC)C(C)C)C(N)=O (H-FIDLNYMVY[Nle]-NH2)
4.3 µM | 17.9 µM |  | H-FIDLNYMVY-NH2
11.4 µM | 25.7 µM |  | H-IDLNYMVYM-NH2
5.8 µM | 8.84 µM |  | H-FIDLAYMVYM-OH
18.9 µg/mL | 13.2 µg/mL | Active | H-FIDLNYMVYM-OH
4.24 µM | 1.11 µM |  | H-FIDLNYMVAM-OH
0.98 µM | 1.14 µM |  | H-FIALNYMVYM-OH
9.56 µM | 5.47 µM |  | H-FIDANYMVYM-OH
97.3 µg/mL |  |  | H-KVDIVAINDP-OH
8.22 µM | 21.6 µM |  | H-FIDLNYMV-NH2
13.5 µM | 20.7 µM |  | H-DLNYMVYM-NH2
0.61 µM | 0.07 µM |  | CCCC[C@H](NC(=O)[C@H](Cc1ccc(O)cc1)NC(=O)[C@H](CC(N)=O)NC(=O)[C@H](CC(C)C)NC(=O)[C@H](CC(=O)O)NC(=O)[C@@H](NC(=O)[C@@H](N)Cc1ccccc1)[C@@H](C)CC)C(=O)N[C@H](C(=O)N[C@@H](Cc1ccc(O)cc1)C(=O)N[C@@H](CCOC)C(N)=O)C(C)C (H-FIDLNY[Nle]VY[hSer](Me)-NH2)
1.64 µM | 0.2 µM |  | CCCC[C@H](NC(=O)[C@H](Cc1ccc(O)cc1)NC(=O)[C@H](CC(N)=O)NC(=O)[C@H](CC(C)C)NC(=O)[C@H](CC(=O)O)NC(=O)[C@@H](NC(=O)[C@@H](N)Cc1ccccc1)[C@@H](C)CC)C(=O)N[C@H](C(=O)N[C@@H](Cc1ccc(O)cc1)C(=O)N[C@@H](CCSC)C(N)=O)C(C)C (H-FIDLNY[Nle]VYM-NH2)
3.36 µM | 0.16 µM |  | H-FIDLNYLVYM-NH2
6.35 µM | 0.96 µM |  | CC[C@H](C)[C@H](NC(=O)[C@@H](N)Cc1ccccc1)C(=O)N[C@@H](CC(=O)O)C(=O)N[C@@H](CC(C)C)C(=O)N[C@@H](CC(N)=O)C(=O)N[C@@H](Cc1ccc(O)cc1)C(=O)N[C@@H](Cc1cccs1)C(=O)N[C@H](C(=O)N[C@@H](Cc1ccc(O)cc1)C(=O)N[C@@H](CCSC)C(N)=O)C(C)C (H-FIDLNY[2Thi]VYM-NH2)
14.8 µM | 16.3 µM |  | H-FIDLNYMAYM-OH
2.62 µM | 1.14 µM |  | H-FIDLNAMVYM-OH
